Measurements as given in ChEMBL document CHEMBL4613325, “Design of Development Candidate eFT226, a First in Class Inhibitor of Eukaryotic Initiation Factor 4A RNA Helicase” (J Med Chem, 2020).

Tests used:
[1] = system: MDA-MB-231; assay: Antiproliferative activity against human MDA-MB-231 cells assessed as reduction in cell proliferation incubated for 72 hrs by CellTiter-Glo reagent based assay; format: functional; settings: MDA-MB-231, 72 h
[2] = Apparent permeability from apical to basolateral side in human Caco2 cells at 10 uM by LC/MS/MS analysis; settings: Caco-2
[3] = biological target: Voltage-gated inwardly rectifying potassium channel KCNH2 (Homo sapiens, UniProt Q12809); assay: Inhibition of human ERG by patch-clamp assay
Chain of Voltage-gated inwardly rectifying potassium channel KCNH2 (Q12809 whole entry): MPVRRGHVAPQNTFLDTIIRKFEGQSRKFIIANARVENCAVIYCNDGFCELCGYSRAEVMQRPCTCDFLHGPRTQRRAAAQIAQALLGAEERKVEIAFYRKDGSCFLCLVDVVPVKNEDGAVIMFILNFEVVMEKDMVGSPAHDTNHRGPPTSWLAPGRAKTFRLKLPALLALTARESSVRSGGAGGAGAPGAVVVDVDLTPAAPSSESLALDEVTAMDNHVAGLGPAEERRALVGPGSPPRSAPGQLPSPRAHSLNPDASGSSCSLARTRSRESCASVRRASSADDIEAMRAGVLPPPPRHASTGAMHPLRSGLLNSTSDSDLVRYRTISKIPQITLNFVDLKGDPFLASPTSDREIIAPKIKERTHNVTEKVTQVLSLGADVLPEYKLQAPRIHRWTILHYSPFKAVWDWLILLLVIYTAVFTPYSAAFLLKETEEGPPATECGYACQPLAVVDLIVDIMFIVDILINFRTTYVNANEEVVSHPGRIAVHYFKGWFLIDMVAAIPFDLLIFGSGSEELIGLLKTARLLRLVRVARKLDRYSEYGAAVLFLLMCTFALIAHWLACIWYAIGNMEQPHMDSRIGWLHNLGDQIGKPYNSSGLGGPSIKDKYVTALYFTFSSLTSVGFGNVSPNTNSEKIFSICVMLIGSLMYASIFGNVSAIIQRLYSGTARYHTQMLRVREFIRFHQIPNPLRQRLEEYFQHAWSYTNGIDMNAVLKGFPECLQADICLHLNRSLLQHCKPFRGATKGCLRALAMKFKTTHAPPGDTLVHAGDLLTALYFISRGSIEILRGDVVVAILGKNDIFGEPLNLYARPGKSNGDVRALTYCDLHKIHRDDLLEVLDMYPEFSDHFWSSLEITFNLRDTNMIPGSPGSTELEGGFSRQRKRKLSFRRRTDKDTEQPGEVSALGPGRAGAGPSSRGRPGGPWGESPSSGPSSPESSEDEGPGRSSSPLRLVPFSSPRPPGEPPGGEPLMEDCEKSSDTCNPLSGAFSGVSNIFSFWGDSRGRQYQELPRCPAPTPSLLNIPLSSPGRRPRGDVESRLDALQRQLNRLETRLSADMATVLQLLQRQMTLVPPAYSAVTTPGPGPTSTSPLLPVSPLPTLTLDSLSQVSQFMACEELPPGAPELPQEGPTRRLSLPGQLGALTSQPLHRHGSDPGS

[4] = Clearance in iv dosed rat; format: ADME, organism-based; settings: in vivo
[5] = Volume of distribution at steady state in iv dosed rat; format: ADME, organism-based; settings: in vivo, read-out: Vdss
[6] = Half life in iv dosed rat; format: ADME, organism-based; settings: in vivo
[7] = AUC in iv dosed rat; format: ADME, organism-based; settings: in vivo
[8] = biological target: T1, Eukaryotic initiation factor 4A-I (Homo sapiens, UniProt P60842); assay: Inhibition of eIF4A1 in human MDA-MB-231 cells assessed as inhibition of cellular-translation incubated for 4 hrs by specific tandem sequence motif repeat AGAGAG in 5'- UTR containing luciferase reporter gene assay; format: cell-based
T1 sequence (P60842 whole entry): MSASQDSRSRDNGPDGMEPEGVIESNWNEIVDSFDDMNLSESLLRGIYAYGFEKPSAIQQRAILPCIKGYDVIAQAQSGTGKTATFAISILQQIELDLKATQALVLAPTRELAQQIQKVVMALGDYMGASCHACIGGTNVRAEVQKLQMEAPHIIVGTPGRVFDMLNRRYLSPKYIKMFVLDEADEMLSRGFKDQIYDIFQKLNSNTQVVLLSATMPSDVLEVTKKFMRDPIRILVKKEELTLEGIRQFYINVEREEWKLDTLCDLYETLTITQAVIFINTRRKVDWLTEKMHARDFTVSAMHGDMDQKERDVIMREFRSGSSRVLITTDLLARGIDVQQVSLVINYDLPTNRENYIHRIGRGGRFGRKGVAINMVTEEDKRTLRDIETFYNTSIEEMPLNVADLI

[9] = biological target: T1, Eukaryotic initiation factor 4A-I; assay: Inhibition of eIF4A1 in human MDA-MB-231 cells assessed as inhibition of cellular-translation incubated for 4 hrs by specific tandem sequence motif repeat GGCGGC in 5'- UTR containing luciferase reporter gene assay; format: cell-based
[10] = biological target: T1, Eukaryotic initiation factor 4A-I; assay: Inhibition of eIF4A1 in human MDA-MB-231 cells assessed as inhibition of cellular-translation incubated for 4 hrs by specific tandem sequence motif repeat CCGCCG in 5'- UTR containing luciferase reporter gene assay; format: cell-based
[11] = biological target: T1, Eukaryotic initiation factor 4A-I; assay: Inhibition of eIF4A1 in human MDA-MB-231 cells assessed as inhibition of cellular-translation incubated for 4 hrs by specific tandem sequence motif repeat CAACAA in 5'- UTR containing luciferase reporter gene assay; format: cell-based
[12] = Inhibition of eIF4A1 F163L mutant in human HAP1 cells assessed as reduction in cell proliferation incubated for 72 hrs by CellTiter-Glo reagent based assay; settings: HAP1, 72 h
[13] = system: MDA-MB-231; assay: Effect on GADPH protein expression in human MDA-MB-231 cells 10 to 100 nM incubated for 24 hrs by Western blot analysis; format: ADME, cell-based; settings: mda-mb-231, 24 h
[14] = system: MDA-MB-231; assay: Antitumor activity against human MDA-MB-231 cells xenografted in athymic nude ((NCr) nu/nu mouse assessed as inhibition of tumor growth at 1 mg/kg, iv treated once weekly for 2 weeks relative to control; format: functional; settings: MDA-MB-231, iv, 336 h
[15] = Toxicity in athymic nude ((NCr) nu/nu mouse xenografted with human MDA-MB-231 cells assessed as induction of body weight loss at 1 mg/kg, iv treated once weekly for 2 weeks relative to control; format: organism-based; settings: in vivo, 336 h
[16] = Half life in mouse at 1 mg, iv administered as single dose measured after 0.083 to 24 hrs by LC-MS analysis; format: ADME, organism-based; settings: in vivo
[17] = Half life in Sprague-Dawley rat at 1 mg, iv administered as single dose measured after 0.083 to 24 hrs by LC-MS analysis; format: ADME, organism-based; settings: in vivo
[18] = Half life in monkey at 1 mg, iv administered as single dose measured after 0.083 to 24 hrs by LC-MS analysis; format: ADME, organism-based, Macaca mulatta; settings: rhesus monkey, in vivo
[19] = Clearance in mouse at 1 mg, iv administered as single dose measured after 0.083 to 24 hrs by LC-MS analysis; format: ADME, organism-based; settings: in vivo
[20] = Clearance in Sprague-Dawley rat at 1 mg, iv administered as single dose measured after 0.083 to 24 hrs by LC-MS analysis; format: ADME, organism-based; settings: in vivo
[21] = Clearance in dog at 1 mg, iv administered as single dose measured after 0.083 to 24 hrs by LC-MS analysis; format: ADME, organism-based, Canis lupus familiaris; settings: in vivo
[22] = Clearance in monkey at 1 mg, iv administered as single dose measured after 0.083 to 24 hrs by LC-MS analysis; format: ADME, organism-based, Macaca mulatta; settings: rhesus monkey, in vivo
[23] = Volume of distribution at steady state in mouse at 1 mg, iv administered as single dose measured after 0.083 to 24 hrs by LC-MS analysis; format: ADME, organism-based; settings: in vivo, read-out: Vdss
[24] = Volume of distribution at steady state in Sprague-Dawley rat at 1 mg, iv administered as single dose measured after 0.083 to 24 hrs by LC-MS analysis; format: ADME, organism-based; settings: in vivo, read-out: Vdss
[25] = Volume of distribution at steady state in dog at 1 mg, iv administered as single dose measured after 0.083 to 24 hrs by LC-MS analysis; format: ADME, organism-based, Canis lupus familiaris; settings: in vivo, read-out: Vdss
[26] = Volume of distribution at steady state in monkey at 1 mg, iv administered as single dose measured after 0.083 to 24 hrs by LC-MS analysis; format: ADME, organism-based, Macaca mulatta; settings: rhesus monkey, in vivo, read-out: Vdss
[27] = Protein binding in mouse plasma; format: ADME, cell-free; settings: read-out: PPB (converted)
[28] = Protein binding in rat plasma; format: ADME, cell-free; settings: read-out: PPB (converted)
[29] = Protein binding in dog plasma; format: ADME, cell-free, Canis lupus familiaris; settings: read-out: PPB (converted)
[30] = Protein binding in monkey plasma; format: ADME, cell-free, Macaca mulatta; settings: rhesus monkey, read-out: PPB (converted)
[31] = Protein binding in human plasma; format: ADME, cell-free; settings: read-out: PPB (converted)

`COc1cc2c(c(OC)n1)[C@]1(O)[C@H](O)[C@H](CN(C)C)[C@@H](c3ccccc3)[C@]1(c1ccc(C#N)cc1)O2` [ZOTATIFIN] gave an IC50 [1] of 10.6 nM, a Papp A→B at 10 µM [2] of 2.5 ×10⁻⁶ cm/s and an IC50 [3] greater than 10000 nM. For the same compound, the clearance [4] was 48 mL/min/kg, the Vd [5] was 13 L/kg and the half-life [6] was 4.4 h. For the same compound, the AUC [7] was 390 ng·h/mL, the IC50 [8] was 1.5 nM and the IC50 [9] was 13.8 nM. For the same compound, the IC50 [10] was 92 nM, the IC50 [11] was 218 nM and the IC50 [12] was 371 nM. The Activity [13] was “Non-Toxic”, the inhibition in vivo at 1 mg/kg [14] was 122% and the Activity [15] was “Non-Toxic”. The half-life [16] was 10.9 h, the half-life [17] was 4.39 h and the half-life [18] was 14.9 h. It also gave a clearance [19] of 15.8 mL/min/kg, a clearance [20] of 48.3 mL/min/kg and a clearance [21] of less than 12.4 mL/min/kg. It also gave a clearance [22] of 11.7 mL/min/kg, a Vd [23] of 12.1 L/kg and a Vd [24] of 13 L/kg. For the same compound, the Vd [25] was 17.8 L/kg, the Vd [26] was 12.2 L/kg and the fraction unbound [27] was 0.252. The fraction unbound [28] was 0.266, the fraction unbound [29] was 0.188 and the fraction unbound [30] was 0.365. For the same compound, the fraction unbound [31] was 0.332.
